These results are taken from patent US20240245694A1, “Tricyclic Compounds and their Uses” (Novartis AG, priority 2022, published 2024).

The subject of one assay is DLD1-WRN-KO cells. The assay is described as follows: Proliferation assay DLD1-WRN-KO (CellTiterGlo, 96 hours), off-target effects. The class given is cell-based. The following applies: Homo sapiens. The gist of the method:
(§1)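 Cells in RPMI-1640/10% FCS were seeded overnight (SW48 2'000, DLD1-WRN-KO 1'500 cells/well), then exposed to eight 3-fold compound dilutions at 0.1% DMSO. ATP luminescence relative to a day-0 plate gives % growth (0% stasis, −100% complete kill). GI50 is the geometric mean of ≥2 independent replicates.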
A general note: ATP-based viability assays read luminescence as a measure of living cells.

In the next assay the test system is SW48 cells. Briefly: Proliferation assay SW48 (CellTiterGlo, 96 hours). It counts as cell-based. To be noted: Homo sapiens. The gist of the method: as §1
The target of assay [1] is WRN helicase (core helicase motif aa N517-P1238) (Homo sapiens (Human), UniProt Q14191). The assay is described as follows: WRN ATPase assay (ADP-Glo), DNA dependent ATP hydrolysis. It counts as biochemical. To be noted: 3 hours pre-incubation, 300 micromolar ATP, FLAP26 ssDNA; geometric means of at least 2 determinations. A digest of the protocol:
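Uses the WRN core helicase (aa N517-P1238) with single-strand 45-mer FLAP26 DNA in Tris pH 7.5, MgCl2, NaCl, BSA and pluronic buffer. Compound was pre-incubated 3 h with enzyme and ATP; reaction then run with 10 nM WRN, 0.2 nM FLAP26 and 300 µM ATP for 30 min at room temperature. ADP quantified by ADP-Glo luminescence; IC50 from duplicate 4-parameter fits, geometric mean of ≥2 runs.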

A word on the GI50: it is the concentration that inhibits growth by half. A lower GI50 goes with more potent growth inhibition. One may read the IC50 as the midpoint of a concentration-inhibition curve.

WRN helicase (core helicase motif aa N517-P1238), sequence (Q14191 517-1238): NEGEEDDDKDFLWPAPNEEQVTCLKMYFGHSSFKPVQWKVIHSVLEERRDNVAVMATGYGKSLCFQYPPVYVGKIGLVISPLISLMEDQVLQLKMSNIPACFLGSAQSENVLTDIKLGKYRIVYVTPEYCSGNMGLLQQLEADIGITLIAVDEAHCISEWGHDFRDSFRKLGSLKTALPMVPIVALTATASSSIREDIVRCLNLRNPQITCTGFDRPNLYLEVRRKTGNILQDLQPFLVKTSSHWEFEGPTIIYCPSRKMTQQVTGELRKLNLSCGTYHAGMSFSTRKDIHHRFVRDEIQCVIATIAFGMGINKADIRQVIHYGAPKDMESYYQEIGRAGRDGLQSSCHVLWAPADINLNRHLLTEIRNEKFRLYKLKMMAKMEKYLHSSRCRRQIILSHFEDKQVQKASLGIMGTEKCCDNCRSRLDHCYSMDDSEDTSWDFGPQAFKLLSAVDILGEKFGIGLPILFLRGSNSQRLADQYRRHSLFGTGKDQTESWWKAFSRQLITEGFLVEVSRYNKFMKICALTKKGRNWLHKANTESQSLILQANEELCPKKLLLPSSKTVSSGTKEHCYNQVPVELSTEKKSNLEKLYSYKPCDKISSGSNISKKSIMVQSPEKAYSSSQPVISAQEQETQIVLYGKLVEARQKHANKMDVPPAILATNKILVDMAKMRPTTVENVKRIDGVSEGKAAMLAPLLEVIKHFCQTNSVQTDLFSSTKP

For `C[C@@H]1C[C@H](C(=O)Nc2ccc(C(F)(F)F)cc2Cl)n2c1c(N1CCN(C(=O)c3ncccc3O)CC1)c(=O)n1nc(C3=CCOCC3)nc21` [Example 11, (7R,9R)—N-(2-chloro-4-(trifluoromethyl)phenyl)-2-(3,6-dihydro-2H-pyran-4-yl)-6-(4-(3-hydroxypicolinoyl)piperazin-1-yl)-7-methyl-5-oxo-5,7,8,9-tetrahydropyrrolo[1,2-c][1,2,4]triazolo[1,5-a]pyrimidine-9-carboxamide], the values for the 50% growth inhibitory concentration (GI50) in the assay with DLD1-WRN-KO cells and in the assay with SW48 cells were greater than 10000 nM and 40 nM, respectively. Moreover, in assay [1], the midpoint of inhibition, the IC50, lay at 50 nM.
Consider `C[C@@H]1C[C@H](C(=O)Nc2ccc(C(F)(F)F)cc2Cl)n2c1c(N1CCN(C(=O)c3ccnc(F)c3O)CC1)c(=O)n1nc(C3=CCOCC3)nc21` [Example 12, (7R,9R)—N-(2-chloro-4-(trifluoromethyl)phenyl)-2-(3,6-dihydro-2H-pyran-4-yl)-6-(4-(2-fluoro-3-hydroxyisonicotinoyl)piperazin-1-yl)-7-methyl-5-oxo-5,7,8,9-tetrahydropyrrolo[1,2-c][1,2,4]triazolo[1,5-a]pyrimidine-9-carboxamide], for which the GI50 in the assay with DLD1-WRN-KO cells was greater than 10000 nM; with SW48 cells, 300 nM. Moreover, the half-inhibitory concentration (IC50) in assay [1] was 30 nM.
In the case of `C[C@@H]1C[C@H](C(=O)Nc2ccc(C(F)(F)F)cc2Cl)n2c1c(N1CCN(C(=O)c3ncncc3O)CC1)c(=O)n1nc(C3=CCOCC3)nc21` [Example 13, (7R,9R)—N-(2-chloro-4-(trifluoromethyl)phenyl)-2-(3,6-dihydro-2H-pyran-4-yl)-6-(4-(5-hydroxypyrimidine-4-carbonyl)piperazin-1-yl)-7-methyl-5-oxo-5,7,8,9-tetrahydropyrrolo[1,2-c][1,2,4]triazolo[1,5-a]pyrimidine-9-carboxamide], the concentration for 50% growth inhibition (GI50) is greater than 10000 nM in the assay with DLD1-WRN-KO cells and 40 nM in the assay on SW48 cells. Besides, 50 nM corresponded to half-maximal inhibition in assay [1] (IC50).
For `Cc1ncnc(C(=O)N2CCN(c3c4n(c5nc(C6=CCOCC6)nn5c3=O)[C@@H](C(=O)Nc3ccc(C(F)(F)F)cc3Cl)C[C@H]4C)CC2)c1O` [Example 14A, (7R,9R)—N-(2-chloro-4-(trifluoromethyl)phenyl)-2-(3,6-dihydro-2H-pyran-4-yl)-6-(4-(5-hydroxy-6-methylpyrimidine-4-carbonyl)piperazin-1-yl)-7-methyl-5-oxo-5,7,8,9-tetrahydropyrrolo[1,2-c][1,2,4]triazolo[1,5-a]pyrimidine-9-carboxamide] the same measures were greater than 10000 nM, 20 nM and 40 nM.
For `Cc1ncnc(C(=O)N2CCN(c3c4n(c5nc(C6=CCOCC6)nn5c3=O)[C@H](C(=O)Nc3ccc(C(F)(F)F)cc3Cl)C[C@@H]4C)CC2)c1O` [Example 14B, (7S,9S)—N-(2-chloro-4-(trifluoromethyl)phenyl)-2-(3,6-dihydro-2H-pyran-4-yl)-6-(4-(5-hydroxy-6-methylpyrimidine-4-carbonyl)piperazin-1-yl)-7-methyl-5-oxo-5,7,8,9-tetrahydropyrrolo[1,2-c][1,2,4]triazolo[1,5-a]pyrimidine-9-carboxamide] the same measures were greater than 10000 nM, 700 nM and 2000 nM.
The like results for `Cc1ncnc(C(=O)N2CCN(c3c4n(c5nc(C6=CCOCC6)nn5c3=O)[C@@H](C(=O)Nc3ccc(C(F)(F)F)cc3Cl)C[C@@H]4C)CC2)c1O` [Example 14C, (7S,9R)—N-(2-chloro-4-(trifluoromethyl)phenyl)-2-(3,6-dihydro-2H-pyran-4-yl)-6-(4-(5-hydroxy-6-methylpyrimidine-4-carbonyl)piperazin-1-yl)-7-methyl-5-oxo-5,7,8,9-tetrahydropyrrolo[1,2-c][1,2,4]triazolo[1,5-a]pyrimidine-9-carboxamide] were, in that order, greater than 10000 nM, 300 nM and 100 nM.
With `Cc1ncnc(C(=O)N2CCN(c3c4n(c5nc(C6=CCOCC6)nn5c3=O)[C@H](C(=O)Nc3ccc(C(F)(F)F)cc3Cl)C[C@H]4C)CC2)c1O` [Example 14D, (7R,9S)—N-(2-chloro-4-(trifluoromethyl)phenyl)-2-(3,6-dihydro-2H-pyran-4-yl)-6-(4-(5-hydroxy-6-methylpyrimidine-4-carbonyl)piperazin-1-yl)-7-methyl-5-oxo-5,7,8,9-tetrahydropyrrolo[1,2-c][1,2,4]triazolo[1,5-a]pyrimidine-9-carboxamide], the GI50 in the assay on DLD1-WRN-KO cells is greater than 10000 nM; in the assay with SW48 cells, 700 nM. Moreover, it took 1000 nM to reach half-maximal inhibition in assay [1] (IC50).
Regarding `Cc1cc(C(F)(F)F)ccc1NC(=O)[C@H]1C[C@@H](C)c2c(N3CCN(C(=O)c4ncccc4O)CC3)c(=O)n3nc(C4=CCOCC4)nc3n21` [Example 15A, (7R,9R)-2-(3,6-dihydro-2H-pyran-4-yl)-6-(4-(3-hydroxypicolinoyl)piperazin-1-yl)-7-methyl-N-(2-methyl-4-(trifluoromethyl)phenyl)-5-oxo-5,7,8,9-tetrahydropyrrolo[1,2-c][1,2,4]triazolo[1,5-a]pyrimidine-9-carboxamide], the GI50 was greater than 10000 nM with DLD1-WRN-KO cells and 30 nM in the assay with SW48 cells. Besides, the IC50 in assay [1] came out at 50 nM.
As for `Cc1cc(C(F)(F)F)ccc1NC(=O)[C@@H]1C[C@H](C)c2c(N3CCN(C(=O)c4ncccc4O)CC3)c(=O)n3nc(C4=CCOCC4)nc3n21` [Example 15B, (7S,9S)-2-(3,6-dihydro-2H-pyran-4-yl)-6-(4-(3-hydroxypicolinoyl)piperazin-1-yl)-7-methyl-N-(2-methyl-4-(trifluoromethyl)phenyl)-5-oxo-5,7,8,9-tetrahydropyrrolo[1,2-c][1,2,4]triazolo[1,5-a]pyrimidine-9-carboxamide], the concentration for 50% growth inhibition (GI50) was greater than 10000 nM in the assay with DLD1-WRN-KO cells and 8000 nM in the assay with SW48 cells. Further, the IC50 in assay [1] turned out to be 18000 nM.
For `Cc1cc(C(F)(F)F)ccc1NC(=O)[C@H]1C[C@H](C)c2c(N3CCN(C(=O)c4ncccc4O)CC3)c(=O)n3nc(C4=CCOCC4)nc3n21` [Example 15C, (7S,9R)-2-(3,6-dihydro-2H-pyran-4-yl)-6-(4-(3-hydroxypicolinoyl)piperazin-1-yl)-7-methyl-N-(2-methyl-4-(trifluoromethyl)phenyl)-5-oxo-5,7,8,9-tetrahydropyrrolo[1,2-c][1,2,4]triazolo[1,5-a]pyrimidine-9-carboxamide] the same measures were greater than 10000 nM, 400 nM and 100 nM.
Turning to `Cc1cc(C(F)(F)F)ccc1NC(=O)[C@@H]1C[C@@H](C)c2c(N3CCN(C(=O)c4ncccc4O)CC3)c(=O)n3nc(C4=CCOCC4)nc3n21` [Example 15D, (7R,9S)-2-(3,6-dihydro-2H-pyran-4-yl)-6-(4-(3-hydroxypicolinoyl)piperazin-1-yl)-7-methyl-N-(2-methyl-4-(trifluoromethyl)phenyl)-5-oxo-5,7,8,9-tetrahydropyrrolo[1,2-c][1,2,4]triazolo[1,5-a]pyrimidine-9-carboxamide], the GI50 with DLD1-WRN-KO cells and with SW48 cells was greater than 10000 nM throughout. This compound came in with an IC50 in assay [1] of 61000 nM.
Consider `Cc1cc(C(F)(F)F)ccc1NC(=O)[C@H]1C[C@@H](C)c2c(N3CCN(C(=O)c4nccc(F)c4O)CC3)c(=O)n3nc(C4=CCOCC4)nc3n21` [Example 16, (7R,9R)-2-(3,6-dihydro-2H-pyran-4-yl)-6-(4-(4-fluoro-3-hydroxypicolinoyl)piperazin-1-yl)-7-methyl-N-(2-methyl-4-(trifluoromethyl)phenyl)-5-oxo-5,7,8,9-tetrahydropyrrolo[1,2-c][1,2,4]triazolo[1,5-a]pyrimidine-9-carboxamide], for which the values for the GI50 in the assay on DLD1-WRN-KO cells and in the assay on SW48 cells were greater than 10000 nM and 10 nM, respectively. In addition, in assay [1], half-maximal inhibition (IC50) was put at 40 nM.
For `Cc1cc(C(F)(F)F)ccc1NC(=O)[C@H]1C[C@@H](C)c2c(N3CCN(C(=O)c4ncnc(C)c4O)CC3)c(=O)n3nc(C4=CCOCC4)nc3n21` [Example 17, (7R,9R)-2-(3,6-dihydro-2H-pyran-4-yl)-6-(4-(5-hydroxy-6-methylpyrimidine-4-carbonyl)piperazin-1-yl)-7-methyl-N-(2-methyl-4-(trifluoromethyl)phenyl)-5-oxo-5,7,8,9-tetrahydropyrrolo[1,2-c][1,2,4]triazolo[1,5-a]pyrimidine-9-carboxamide] the same measures were greater than 10000 nM, 20 nM and 60 nM.
For `Cc1ncnc(C(=O)N2CCN(c3c4n(c5nc(C6=CCOCC6)nn5c3=O)[C@H](C(=O)Nc3ccc(C(F)(F)F)cc3Cl)C[C@@H]4C)C[C@H]2C)c1O` [Example 18B, (7S,9S)—N-(2-chloro-4-(trifluoromethyl)phenyl)-2-(3,6-dihydro-2H-pyran-4-yl)-6-((R)-4-(5-hydroxy-6-methylpyrimidine-4-carbonyl)-3-methylpiperazin-1-yl)-7-methyl-5-oxo-5,7,8,9-tetrahydropyrrolo[1,2-c][1,2,4]triazolo[1,5-a]pyrimidine-9-carboxamide] the same measures were greater than 10000 nM, greater than 10000 nM and 36000 nM.
The like results for `Cc1ncnc(C(=O)N2CCN(c3c4n(c5nc(C6=CCOCC6)nn5c3=O)[C@H](C(=O)Nc3ccc(C(F)(F)F)cc3Cl)C[C@H]4C)C[C@H]2C)c1O` [Example 18C, (7R,9S)—N-(2-chloro-4-(trifluoromethyl)phenyl)-2-(3,6-dihydro-2H-pyran-4-yl)-6-((R)-4-(5-hydroxy-6-methylpyrimidine-4-carbonyl)-3-methylpiperazin-1-yl)-7-methyl-5-oxo-5,7,8,9-tetrahydropyrrolo[1,2-c][1,2,4]triazolo[1,5-a]pyrimidine-9-carboxamide] were, in that order, greater than 10000 nM, greater than 10000 nM and greater than 10000 nM.
